Measured values from article PMC7281472, “CYC31, A Natural Bromophenol PTP1B Inhibitor, Activates Insulin Signaling and Improves Long Chain-Fatty Acid Oxidation in C2C12 Myotubes” (Marine Drugs, 2020).

Biological target: T1, protein tyrosine phosphatase 1B (PTP1B) (Homo sapiens, UniProt P18031)
T1 construct: gene PTPN1; PTP1B1-321
T1 sequence (P18031 1-321): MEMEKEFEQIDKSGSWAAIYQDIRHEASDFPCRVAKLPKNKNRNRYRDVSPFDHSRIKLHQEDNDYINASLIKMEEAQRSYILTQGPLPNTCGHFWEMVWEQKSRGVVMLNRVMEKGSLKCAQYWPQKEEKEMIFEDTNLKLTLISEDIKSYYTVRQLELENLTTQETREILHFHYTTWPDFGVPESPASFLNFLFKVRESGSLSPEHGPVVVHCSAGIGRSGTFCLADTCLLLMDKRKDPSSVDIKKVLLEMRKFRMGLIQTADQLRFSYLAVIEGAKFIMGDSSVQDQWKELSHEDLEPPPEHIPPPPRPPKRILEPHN
Test: pNPP hydrolysis assay with recombinant human PTP1B, absorbance at […] nm
Assay type: biochemical

SMILES: Oc1cc(Cc2cc(O)c(O)c(Br)c2Cc2cc(O)c(O)c(Br)c2Br)c(Br)c(Br)c1O [CYC31, 3-bromo-4,5-Bis(2,3-dibromo-4,5-dihydroxybenzyl)-1,2-benzenediol]
- pNPP hydrolysis assay with recombinant human PTP1B, absorbance at 405 nm: As shown in Figure 1B, PTP1B was significantly inactivated by CYC31 in a concentration-dependent manner.
